From patent EP0008269A1, “Medicines containing as active ingredients compounds of the benzene-sulfone type; compounds of this type and process for their preparation” (CHOAY S.A., priority 1978, dated 1980)

How the values were obtained:
[1] = tested on: fibrillation; assay: Antifibrillant activity: chloroform-induced cardiac fibrillation in mice; type: in vivo, souris; details: 100 mg/kg i.p., 15 min before chloroform exposure
Experimental: Pour ces essais, on utilise comme précédemment des lots de 10 souris auxquelles sont administrés, par voie intrapéritonéale, 0,5 ml d'une solution ou suspension de substance étudiée dans du soluté isotonique.
Les souris sont traitées suivant une méthode voisine de celle décrite par B. Vargaftig et J.L. Coignet (Eur. J. Pharmacol., 1969, 6, 49). Selon cette méthode, les souris sont soumises à une atmosphère chargée d'une quantité déterminée de chloroforme. Lorsque les mouvements respiratoires cessent, le thorax est ouvert et le coeur examiné pour l'observation des tremblements superficiels très rapides. La fibrillation est positive lorsque ces mouvements sont observés pendant plus de 5 secondes.
La substance étudiée est administrée à raison de 100 mg/kg 15 minutes avant l'exposition au chloroforme.
La protection observée pour les substances des exemples 22 et 27 est d'environ 30 %.

[2] = tested on: ulcères provoqués par immobilisation; assay: Antiulcer activity: restraint (immobilisation) ulcer in rats; type: in vivo; details: rat, 10 mg/kg i.p., compared with controls
Experimental: Elle est déterminée sur les ulcères provoqués par immobilisation chez le rat. La méthode de mesure est celle décrite par G. Narcisse (Thérapie, 1972, 27, 705). La substance est administrée par voie intrapéritonéale, à raison de 10 mg/kg.
Par comparaison avec des témoins, le pourcentage de protection, dans le cas du produit de l'exemple 22, est de 61,3 %.

[3] = tested on: vomissements; assay: Antiemetic activity: apomorphine-induced vomiting in dogs; type: in vivo, chiens Beagle; details: 1 mg/kg intramuscular, 30 min before apomorphine 0,1 mg/kg s.c., vomiting counted for the next half hour
Experimental: Les essais sont effectués sur des chiens Beagle adultes de 8 à 12 kg, qui sont mis à jeun pendant 24 heures.
Chaque animal est son propre témoin, un essai sans protection étant réalisé 8 jours avant l'essai proprement dit en présence de la substance étudiée.
Les substances étudiées sont administrées dans du soluté isotonique à raison de 1 mg/kg et par voie intramusculaire. 30 minutes après, on injecte l'apomorphine par voie sous-cutanée, à raison de 0,1 mg/kg., et l'on dénombre les vomissements dans la demi-heure suivante.
Dans ces conditions, on a observé, pour les substances des exemples 22, 24, 26 et 27, une réduction du nombre de vomissements qui est respectivement de 50,8 %, 28,2 %, 44,2 %, 47,6 %.

[4] = tested on: cellules de la Lignée L.1210; assay: Cytostatic activity: growth inhibition of L.1210 cells; type: cell-based; details: L.1210 cells in culture
Experimental: Cette activité est étudiée en mesurant le pouvoir d'in- hibition de la croissance de cellules de la Lignée L.1210 cultivée sur un milieu approprié.
Ce pouvoir est exprimé en poids de produit par 10^5 cellules inhibant de 50 % la croissance cellulaire.
Pour la substance de l'exemple 5, ce poids est de 6 µg/10^5 cellules, pour celle de l'exemple 7, il est de 4 µg/10^5 cellules.

[5] = tested on: facteurs de coagulation; assay: Activity on coagulation factors: thrombo-elastography on blood samples (terms r and k)
From the text: L'étude est faite par thrombo-élastographie sur des échantillons sanguins auxquels sont ajoutées des quantités dosées des substances actives selon l'invention.
La mesure des termes r (temps d'apparition de la fibrine pendant lequel la viscosité ne varie pas) et k (temps d'accroissement de la viscosité jusqu'à une valeur donnée) montre, pour les échantillons traités à l'aide de la substance de l'exemple 7, une augmentation de 32 % pour 10/ug/ml et de 45 % pour 100/ug/ml.

Compound | protection (fibrillation) [1] [%] | réduction du nombre de vomissements [3] | poids de produit par 10^5 cellules inhibant de 50 % la croissance cellulaire [4] [µg/10^5 cellules] | further results
COc1ccc(Cl)cc1S(=O)(=O)CCN1CCOCC1 [Exemple 22] | ~30 | 50,8% | – | pourcentage de protection [2]: 61,3%
COc1ccc(Cl)cc1S(=O)(=O)CCCN1CCCC1 [Exemple 26] | – | 44,2% | – | –
COc1ccccc1S(=O)(=O)CCCl [Exemple 5] | – | – | 6 | –
COc1ccc(Cl)cc1S(=O)(=O)CCCN1CCCCC1 [Exemple 27] | ~30 | 47,6% | – | –
COc1ccc(Cl)cc1S(=O)(=O)CCCl [Exemple 7] | – | – | 4 | augmentation des termes r et k ([5]; 10/ug/ml added to blood samples): 32%; augmentation des termes r et k ([5]; 100/ug/ml added to blood samples): 45%
COc1ccc(Cl)cc1S(=O)(=O)CCN1CCCCC1 [Exemple 24] | – | 28,2% | – | –
